# Assays:
# Type in all cases: in vivo
# Conditions in all cases: mortality
# [1] = system: Plutella xylostella; assay: Plutella xylostella - test (cabbage leaf dip, larvae)
# Description: (§1) To produce a suitable preparation of active compound, 1 part by weight of active compound is mixed with the stated amount of solvent and emulsifier, and the concentrate is diluted with emulsifier-containing water to the desired concentration.
# Cabbage leaves (Brassica oleracea) are treated by being dipped into the preparation of the active compound of the desired concentration and are infested with larvae of the diamond back moth (Plutella xylostella) as long as the leaves are still moist.
# (§2) After the specified period of time, the mortality in % is determined. 100% means that all the caterpillars have been killed; 0% means that none of the caterpillars have been killed.
# [2] = system: Spodoptera frugiperda; assay: Spodoptera frugiperda - test (cabbage leaf dip, larvae)
# Description: as §1
# Cabbage leaves (Brassica oleracea) are treated by being dipped into the preparation of the active compound of the desired concentration and are infested with larvae of the fall army worm (Spodoptera frugiperda) as long as the leaves are still moist.
# as §2
# [3] = system: Spodoptera exigua; assay: Spodoptera exigua - test (cabbage leaf dip, larvae)
# Description: as §1
# Cabbage leaves (Brassica oleracea) are treated by being dipped into the preparation of the active compound of the desired concentration and are infested with larvae of the beet army worm (Spodoptera exigua) as long as the leaves are still moist.
# as §2
structure (smiles),measurement,setting,value
"CN/C(=N\[N+](=O)[O-])NCc1cnc(Cl)s1 [Clothianidin, clothianidin]",Efficacy in % after 4d,"[1]; 4 ppm, second part of Table A",0%
same,Efficacy in % after 4d,[2]; 4 ppm,0%
"CSC1=N[C@@](C)(c2ccccc2)C(=O)N1Nc1ccccc1 [Fenamidone, fenamidone]",Efficacy in % after 4d,"[1]; 200 ppm, first part of Table A",35%
same,Efficacy in % after 4d,"[1]; 200 ppm, second part of Table A",65%
same,Efficacy in % after 4d,"[1]; 500 ppm, first part of Table A",75%
same,Efficacy in % after 4d,[2]; 200 ppm,0%
same,Efficacy in % after 3d,[3]; 100 ppm,0%
same,Efficacy in % after 3d,[3]; 200 ppm,0%
"O=[N+]([O-])NC1=NCCN1Cc1ccc(Cl)nc1 [Imidacloprid, imidacloprid]",Efficacy in % after 4d,"[1]; 20 ppm, first part of Table A",5%
same,Efficacy in % after 3d,[3]; 20 ppm,0%
"N#C/N=C1\SCCN1Cc1ccc(Cl)nc1 [Thiacloprid, thiacloprid]",Efficacy in % after 3d,[3]; 100 ppm,10%
"CN1COCN(Cc2cnc(Cl)s2)/C1=N\[N+](=O)[O-] [Thiamethoxam, thiamethoxam]",Efficacy in % after 4d,"[1]; 4 ppm, first part of Table A",0%

# Source: patent US8288426B2, “Pesticidal composition comprising fenamidone and an insecticide compound” (Bayer CropScience AG, priority 2006, dated 2012)
